Measured values: US8575193B2, “N-substituted tetrahydroisoquinoline/isoindoline hydroxamic acid compounds” (4SC AG, priority 2008, dated 2013)
Structures can show the parent of a compound that is named as a salt.

What was measured:
rHDAC8 = biological target: T1, rHDAC8 (Homo sapiens, UniProt Q9BY41); test: rHDAC8 enzymatic assay (recombinant FLAG-HDAC8); type: biochemical; details: FLAG-HDAC8 from insect cells; 50 μM Ac-RHK(Ac)K(Ac)-AMC, 3 h at 30° C.; read-out: rHDAC8 [pIC50] (converted)
T1 construct: FLAG; made in house; host or cells: baculovirus-infected Sf21 insect cells
T1 sequence (Q9BY41 1-377): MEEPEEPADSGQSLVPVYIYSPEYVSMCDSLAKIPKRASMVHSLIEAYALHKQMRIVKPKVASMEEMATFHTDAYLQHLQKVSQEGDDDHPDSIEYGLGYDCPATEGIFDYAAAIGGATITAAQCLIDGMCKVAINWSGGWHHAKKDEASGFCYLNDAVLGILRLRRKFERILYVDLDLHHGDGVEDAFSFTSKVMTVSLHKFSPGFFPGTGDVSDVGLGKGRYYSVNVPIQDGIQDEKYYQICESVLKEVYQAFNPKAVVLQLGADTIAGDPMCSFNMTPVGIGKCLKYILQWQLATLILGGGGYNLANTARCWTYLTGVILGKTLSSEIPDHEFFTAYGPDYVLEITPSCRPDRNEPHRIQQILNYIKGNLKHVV
From the text: (§1) Human HDAC1 and HDAC6 fused with the FLAG epitope are stably expressed in HEK293 cells while human HDAC3 and HDAC8 fused with the FLAG epitope are overexpressed in baculo-virus infected insect (Sf21) cells. To ensure stability of FLAG-HDAC3 the SMRT protein is co-expressed in the corresponding insect cells. […] FLAG-HDAC3 and FLAG-HDAC8 are also purified by M2-agarose affinity chromatography after mass cultivation of the insect cells and cell lysis.
(§2) The HDAC enzyme activity assay is done as described by Wegener et al. (Chem. & Biol. 10, 61-68, 2003). Briefly 40 μl of a 1:100 dilution (=0.4 μl) nuclear HeLa extract (mixture of class I and II HDACs), 29 μl enzyme buffer (15 mM Tris HCl pH 8.1, 0.25 mM EDTA, 250 mM NaCl, 10% v:v glycerol) and 1 μl test compound are added to a well of a 96 well microtiter plate and reaction started by addition of 3 μl substrate (Ac-NH-GGK(Ac)-AMC; final concentration 25 μM and final volume […]). […] After incubation at room temperature for further 40 min, fluorescence is measured using a Wallac Victor 1420 multilabel counter (Ex 355 nm, Em 460 nm) for quantification of AMC (7-amino-4-methylcoumarin) generated by trypsine cleavage of the deacetylated peptide. […] The corresponding pIC50 values of the compounds for HDAC inhibitory activity are determined from the concentration-effect curves by means of non-linear regression (Graphpad Prism software).
(§3) The HDAC1, HDAC3 and HDAC6 enzymatic assays are done with slight modifications with recombinant FLAG-HDAC1 and FLAG-HDAC6 proteins isolated from HEK293 cell lysates or recombinant FLAG-HDAC3 isolated from insect cells, respectively. The HDAC8 enzymatic assay using recombinant FLAG-HDAC8 isolated from insect cells is done with a different substrate. About 4.5 ng/well FLAG-HDAC1 and 3.1 ng/well FLAG-HDAC6 (dependent on batches and specific activity) are incubated with 6 μM or 10 μM Ac-NH-GGK(Ac)-AMC substrate, respectively, for 3 h at 30° C. About 1.7 ng/well FLAG-HDAC3 is incubated with 6 μM Ac-NH-GGK(Ac)-AMC substrate for 2 h at 30° C., while approximately 130 ng/well FLAG-HDAC8 is incubated with 50 μM Ac-RHK(Ac)K(Ac)-AMC substrate for 3 h at 30° C. Termination of the reaction and all further steps are done as described for HeLa cell nuclear extracts as a source for HDAC enzymatic activity. The corresponding pIC50 values of the compounds for HDAC1, HDAC3, HDAC6 and HDAC8 inhibitory activity are determined from the concentration-effect curves by means of non-linear regression.

rHDAC3 = biological target: T2, rHDAC3 (Homo sapiens, UniProt O15379); test: rHDAC3 enzymatic assay (recombinant FLAG-HDAC3); type: biochemical; details: FLAG-HDAC3 from insect cells; 6 μM Ac-NH-GGK(Ac)-AMC, 2 h at 30° C.; read-out: rHDAC3 [pIC50] (converted)
T2 construct: FLAG; made in house; host or cells: baculovirus-infected Sf21 insect cells
From the text: as §1, §2, §3

[1] = Cellular cytotoxicity assay (Alamar Blue/Resazurin), HeLa; type: cell-based; details: human, HeLa cells, 72 hours incubation, Resazurin, read-out: HeLa Cytotoxicity [pIC50] (converted)
Description: (§4) The anti-proliferative activity of the compounds as described herein, is evaluated with various solid and hematological cancer cell lines using the Alamar Blue (Resazurin) cell viability assay (O'Brien et al, Eur J Biochem 267, 5421-5426, 2000). Resazurin is reduced to the fluorescent resorufin by cellular dehydrogenase activity, correlating with viable, proliferating cells. Test compounds are dissolved as 20 mM solutions in dimethylsulfoxide (DMSO) and subsequently diluted in semi-logarithmic steps. The cancer cell lines are seeded into 96 well flat bottom plates at respective cell densities in a volume of 200 μl per well to allow continuous proliferation during the experiment. 24 hours after seeding 1 μl each of the compound dilutions is added into each well of the 96 well plate. Wells containing untreated control cells are filled with 200 μl DMEM medium containing 0.5% v:v DMSO. The cells are then incubated with the substances for 72 hours at 37° C. in a humidified atmosphere containing 5% carbon dioxide. To determine the viability of the cells, 20 μl of a Resazurin solution (Sigma; 90 mg/l) are added. After 4 hours incubation at 37° C. the fluorescence is measured at an extinction of 544 nm and an emission of 590 nm. For the calculation of the cell viability the emission value from untreated cells is set as 100% viability and the emission rates of treated cells are set in relation to the values of untreated cells. Viabilities are expressed as % values. The corresponding pIC50 values of the compounds for cytotoxic activity are determined from the concentration-effect curves by means of non-linear regression.

rHDAC6 = biological target: T3, rHDAC6 (Homo sapiens, UniProt Q9UBN7); test: rHDAC6 enzymatic assay (recombinant FLAG-HDAC6); type: biochemical; details: FLAG-HDAC6 from HEK293; 10 μM Ac-NH-GGK(Ac)-AMC, 3 h at 30° C.; read-out: rHDAC6 [pIC50] (converted)
T3 construct: FLAG; made in house
T3 sequence (Q9UBN7 1-1215): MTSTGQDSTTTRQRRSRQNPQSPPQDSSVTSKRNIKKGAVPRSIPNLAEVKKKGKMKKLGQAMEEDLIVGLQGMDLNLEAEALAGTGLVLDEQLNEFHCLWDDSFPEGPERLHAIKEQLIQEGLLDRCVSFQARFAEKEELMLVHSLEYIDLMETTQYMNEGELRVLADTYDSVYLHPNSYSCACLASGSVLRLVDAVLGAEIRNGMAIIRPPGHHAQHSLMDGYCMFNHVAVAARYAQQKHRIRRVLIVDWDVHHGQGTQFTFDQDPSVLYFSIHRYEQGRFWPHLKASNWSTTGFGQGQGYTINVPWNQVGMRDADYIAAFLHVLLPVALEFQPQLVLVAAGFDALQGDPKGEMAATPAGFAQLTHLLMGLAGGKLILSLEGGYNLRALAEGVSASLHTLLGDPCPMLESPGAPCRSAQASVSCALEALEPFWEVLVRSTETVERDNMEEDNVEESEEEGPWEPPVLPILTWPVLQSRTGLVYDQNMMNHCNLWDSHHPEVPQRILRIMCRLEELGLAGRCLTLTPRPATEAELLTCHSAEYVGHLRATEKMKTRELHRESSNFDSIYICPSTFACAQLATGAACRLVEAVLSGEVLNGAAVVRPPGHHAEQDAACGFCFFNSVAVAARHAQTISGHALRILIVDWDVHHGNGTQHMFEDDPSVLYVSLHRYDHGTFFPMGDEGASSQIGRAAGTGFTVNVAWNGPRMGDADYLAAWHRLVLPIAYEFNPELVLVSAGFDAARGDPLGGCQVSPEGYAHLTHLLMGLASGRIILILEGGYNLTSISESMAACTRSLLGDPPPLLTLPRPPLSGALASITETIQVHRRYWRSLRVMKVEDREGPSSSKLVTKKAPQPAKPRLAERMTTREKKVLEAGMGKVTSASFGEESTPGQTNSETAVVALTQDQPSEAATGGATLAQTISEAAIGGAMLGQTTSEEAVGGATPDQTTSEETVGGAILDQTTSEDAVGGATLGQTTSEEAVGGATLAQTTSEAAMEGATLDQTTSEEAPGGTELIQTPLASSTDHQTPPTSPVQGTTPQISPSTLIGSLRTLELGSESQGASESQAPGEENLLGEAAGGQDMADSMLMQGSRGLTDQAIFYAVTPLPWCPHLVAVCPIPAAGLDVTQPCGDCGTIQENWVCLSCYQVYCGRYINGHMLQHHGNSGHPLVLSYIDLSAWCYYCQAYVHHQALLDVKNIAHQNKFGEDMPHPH
From the text: as §1, §2, §3

rHDAC1 = biological target: T4, rHDAC1 (Homo sapiens, UniProt Q13547); test: rHDAC1 enzymatic assay (recombinant FLAG-HDAC1); type: biochemical; details: FLAG-HDAC1 from HEK293; 6 μM Ac-NH-GGK(Ac)-AMC, 3 h at 30° C.; read-out: rHDAC1 [pIC50] (converted)
T4 construct: FLAG; made in house
From the text: as §1, §2, §3

[2] = Cellular cytotoxicity assay (Alamar Blue/Resazurin), A549; type: cell-based; details: human, A549 cells; A549, 72 hours incubation, Resazurin; read-out: A549 Cytotoxicity [pIC50] (converted)
Description: as §4

T2 sequence (O15379 whole entry): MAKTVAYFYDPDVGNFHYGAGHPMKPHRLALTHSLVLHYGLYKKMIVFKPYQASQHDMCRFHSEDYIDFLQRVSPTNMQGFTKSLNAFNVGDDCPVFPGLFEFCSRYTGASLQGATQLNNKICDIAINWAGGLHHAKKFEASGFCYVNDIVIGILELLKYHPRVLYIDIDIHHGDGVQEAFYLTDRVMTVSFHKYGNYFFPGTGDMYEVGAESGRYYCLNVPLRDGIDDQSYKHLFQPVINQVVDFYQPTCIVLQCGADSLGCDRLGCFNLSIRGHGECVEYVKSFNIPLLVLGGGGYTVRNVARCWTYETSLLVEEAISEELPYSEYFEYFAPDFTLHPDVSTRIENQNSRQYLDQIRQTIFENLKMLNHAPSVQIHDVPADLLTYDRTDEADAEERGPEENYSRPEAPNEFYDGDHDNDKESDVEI
T2 sequence (Q9Y618 whole entry partner): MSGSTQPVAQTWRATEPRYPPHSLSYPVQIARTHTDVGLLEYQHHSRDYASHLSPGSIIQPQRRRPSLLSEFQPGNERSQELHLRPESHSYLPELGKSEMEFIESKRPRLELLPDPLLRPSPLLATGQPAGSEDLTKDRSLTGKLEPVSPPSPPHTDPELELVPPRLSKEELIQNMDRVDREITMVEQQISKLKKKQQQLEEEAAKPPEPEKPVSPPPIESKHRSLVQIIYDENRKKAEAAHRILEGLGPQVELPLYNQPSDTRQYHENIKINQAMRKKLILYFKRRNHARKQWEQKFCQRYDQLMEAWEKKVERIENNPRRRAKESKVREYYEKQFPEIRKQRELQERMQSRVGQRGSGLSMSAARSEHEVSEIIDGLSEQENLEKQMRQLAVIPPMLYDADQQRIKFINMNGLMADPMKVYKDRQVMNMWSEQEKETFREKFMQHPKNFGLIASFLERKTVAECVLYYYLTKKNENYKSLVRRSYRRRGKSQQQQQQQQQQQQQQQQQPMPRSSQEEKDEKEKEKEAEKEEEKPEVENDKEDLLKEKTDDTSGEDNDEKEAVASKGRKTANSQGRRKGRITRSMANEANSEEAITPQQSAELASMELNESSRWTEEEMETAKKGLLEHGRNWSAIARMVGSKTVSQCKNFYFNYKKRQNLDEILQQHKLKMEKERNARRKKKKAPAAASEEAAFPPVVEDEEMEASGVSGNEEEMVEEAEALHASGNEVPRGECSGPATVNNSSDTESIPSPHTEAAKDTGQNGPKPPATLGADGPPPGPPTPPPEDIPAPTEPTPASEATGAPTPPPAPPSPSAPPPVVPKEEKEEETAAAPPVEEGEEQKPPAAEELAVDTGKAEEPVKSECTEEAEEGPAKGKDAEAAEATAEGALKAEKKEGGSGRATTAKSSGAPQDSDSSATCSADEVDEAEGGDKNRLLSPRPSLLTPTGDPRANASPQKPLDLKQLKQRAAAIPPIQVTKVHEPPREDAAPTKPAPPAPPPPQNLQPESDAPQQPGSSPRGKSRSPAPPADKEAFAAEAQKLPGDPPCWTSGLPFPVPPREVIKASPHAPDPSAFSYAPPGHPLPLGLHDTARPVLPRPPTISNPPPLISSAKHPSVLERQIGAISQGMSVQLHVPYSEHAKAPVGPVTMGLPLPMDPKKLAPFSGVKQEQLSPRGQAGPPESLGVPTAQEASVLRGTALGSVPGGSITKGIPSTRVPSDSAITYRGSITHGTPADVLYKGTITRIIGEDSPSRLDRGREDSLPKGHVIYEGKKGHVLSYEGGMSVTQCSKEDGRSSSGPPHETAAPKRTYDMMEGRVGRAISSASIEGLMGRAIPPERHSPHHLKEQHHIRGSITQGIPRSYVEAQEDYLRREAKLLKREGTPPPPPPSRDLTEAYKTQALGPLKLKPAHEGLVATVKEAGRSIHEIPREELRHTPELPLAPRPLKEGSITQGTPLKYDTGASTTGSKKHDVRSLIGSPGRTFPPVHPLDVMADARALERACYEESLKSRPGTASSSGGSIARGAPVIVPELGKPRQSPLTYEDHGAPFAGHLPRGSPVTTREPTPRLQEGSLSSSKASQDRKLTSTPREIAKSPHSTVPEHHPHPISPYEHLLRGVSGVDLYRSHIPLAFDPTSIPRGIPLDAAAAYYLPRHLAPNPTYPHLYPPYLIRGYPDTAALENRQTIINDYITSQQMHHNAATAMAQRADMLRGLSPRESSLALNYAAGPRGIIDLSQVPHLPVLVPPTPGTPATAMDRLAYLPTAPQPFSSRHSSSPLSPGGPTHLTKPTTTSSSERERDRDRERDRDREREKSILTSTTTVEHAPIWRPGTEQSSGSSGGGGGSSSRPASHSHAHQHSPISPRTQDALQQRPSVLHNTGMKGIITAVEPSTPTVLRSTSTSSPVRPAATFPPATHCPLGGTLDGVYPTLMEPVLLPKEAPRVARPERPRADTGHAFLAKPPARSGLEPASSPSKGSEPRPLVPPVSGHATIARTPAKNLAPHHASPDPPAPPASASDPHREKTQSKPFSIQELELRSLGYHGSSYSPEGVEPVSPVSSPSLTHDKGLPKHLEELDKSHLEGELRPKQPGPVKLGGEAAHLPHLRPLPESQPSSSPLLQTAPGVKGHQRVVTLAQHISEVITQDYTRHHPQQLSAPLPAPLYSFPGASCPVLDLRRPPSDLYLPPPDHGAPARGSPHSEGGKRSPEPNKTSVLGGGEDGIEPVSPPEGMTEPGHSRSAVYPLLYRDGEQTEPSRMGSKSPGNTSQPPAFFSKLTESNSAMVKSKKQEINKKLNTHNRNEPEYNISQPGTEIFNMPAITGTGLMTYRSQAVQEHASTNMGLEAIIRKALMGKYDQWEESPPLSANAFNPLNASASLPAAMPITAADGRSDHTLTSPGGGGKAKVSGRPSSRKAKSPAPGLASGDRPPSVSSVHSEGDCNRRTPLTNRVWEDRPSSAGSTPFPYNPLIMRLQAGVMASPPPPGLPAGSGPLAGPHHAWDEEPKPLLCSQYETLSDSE
T4 sequence (Q13547 whole entry): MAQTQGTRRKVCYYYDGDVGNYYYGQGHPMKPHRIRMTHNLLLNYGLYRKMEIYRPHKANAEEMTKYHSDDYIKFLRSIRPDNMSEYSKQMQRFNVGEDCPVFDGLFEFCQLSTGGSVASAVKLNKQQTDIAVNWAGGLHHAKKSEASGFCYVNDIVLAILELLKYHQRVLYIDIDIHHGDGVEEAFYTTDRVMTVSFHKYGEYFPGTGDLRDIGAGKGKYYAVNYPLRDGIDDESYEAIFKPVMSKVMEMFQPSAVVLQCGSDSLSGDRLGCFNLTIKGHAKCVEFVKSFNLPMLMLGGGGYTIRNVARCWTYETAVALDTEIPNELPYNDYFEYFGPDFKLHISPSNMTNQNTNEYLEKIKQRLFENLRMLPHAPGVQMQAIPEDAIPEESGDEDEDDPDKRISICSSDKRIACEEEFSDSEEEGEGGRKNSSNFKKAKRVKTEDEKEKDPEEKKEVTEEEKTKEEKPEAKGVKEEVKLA

O=C(NO)c1ccc2c(c1)CN(C(=O)c1ccc3ccccc3n1)C2 [Example 27, N-Hydroxy-2-(quinolin-2-ylcarbonyl)isoindoline-5-carboxamide]
melting point: 162 to 166 °C

O=C(NO)c1ccc2c(c1)CN(C(=O)c1ccc3ncccc3c1)C2 [Example 28, N-Hydroxy-2-(quinolin-6-ylcarbonyl)isoindoline-5-carboxamide]
melting point: 208 to 210 °C

O=C(NO)c1ccc2c(c1)CCN(C(=O)Cc1ccccn1)C2 [Example 14, N-Hydroxy-2-(pyridin-2-ylacetyl)-1,2,3,4-tetrahydroisoquinoline-6-carboxamide hydrochloride]
IC50 (rHDAC8): 1 to 10 µM | IC50 (rHDAC3): 10 to 100 µM | IC50 at 72 h [1]: 1 to 100 µM

O=C(NO)c1ccc2c(c1)CCN(C(=O)Cc1ccccn1)C2 [Example 2, N-Hydroxy-2-(pyridin-2-ylacetyl)-1,2,3,4-tetrahydroisoquinoline-6-carboxamide hydrochloride]
IC50 (rHDAC6): 0.001 to 0.1 µM | IC50 (rHDAC1): 10 to 100 µM | IC50 at 72 h [2]: > 100 µM

Cc1nccn1CCC(=O)N1CCc2ccc(C(=O)NO)cc2C1.Cl
melting point: 63 °C

CC(=O)N1CCc2ccc(C(=O)NO)cc2C1 [Example 25, 2-Acetyl-N-hydroxy-1,2,3,4-tetrahydroisoquinoline-7-carboxamide]
melting point: 177 to 181 °C

O=C(NO)c1ccc2c(c1)CN(C(=O)c1cc3ccccc3cn1)C2 [Example 29, N-Hydroxy-2-(isoquinolin-3-ylcarbonyl)isoindoline-5-carboxamide]
melting point: 208 to 210 °C
